The source of these data is patent US5776939A, “Drug resistance and multidrug resistance modulators” (Eli Lilly and Company, priority 1997, dated 1998).

By EC50 is commonly meant the concentration at which the effect is half-maximal.

SMILES strings stand for the structures.

The target in one data set is p-glycoprotein (Homo sapiens, UniProt P08183). As to conditions: for EC50: cem/vlb100 cells, 72 h; for Rev100 (lowest concentration of modifier which can achieve 100% reversal activity): human, 4320 min.
The next data set deals with multidrug resistance. As to conditions: in vivo; cited from earlier work.
For data set [1] the following is noted: in vivo; cited from earlier work.
In another data set the test system is drug-resistant malaria. As to conditions: in vitro; cited from earlier work.

Chain of p-glycoprotein (P08183 whole entry): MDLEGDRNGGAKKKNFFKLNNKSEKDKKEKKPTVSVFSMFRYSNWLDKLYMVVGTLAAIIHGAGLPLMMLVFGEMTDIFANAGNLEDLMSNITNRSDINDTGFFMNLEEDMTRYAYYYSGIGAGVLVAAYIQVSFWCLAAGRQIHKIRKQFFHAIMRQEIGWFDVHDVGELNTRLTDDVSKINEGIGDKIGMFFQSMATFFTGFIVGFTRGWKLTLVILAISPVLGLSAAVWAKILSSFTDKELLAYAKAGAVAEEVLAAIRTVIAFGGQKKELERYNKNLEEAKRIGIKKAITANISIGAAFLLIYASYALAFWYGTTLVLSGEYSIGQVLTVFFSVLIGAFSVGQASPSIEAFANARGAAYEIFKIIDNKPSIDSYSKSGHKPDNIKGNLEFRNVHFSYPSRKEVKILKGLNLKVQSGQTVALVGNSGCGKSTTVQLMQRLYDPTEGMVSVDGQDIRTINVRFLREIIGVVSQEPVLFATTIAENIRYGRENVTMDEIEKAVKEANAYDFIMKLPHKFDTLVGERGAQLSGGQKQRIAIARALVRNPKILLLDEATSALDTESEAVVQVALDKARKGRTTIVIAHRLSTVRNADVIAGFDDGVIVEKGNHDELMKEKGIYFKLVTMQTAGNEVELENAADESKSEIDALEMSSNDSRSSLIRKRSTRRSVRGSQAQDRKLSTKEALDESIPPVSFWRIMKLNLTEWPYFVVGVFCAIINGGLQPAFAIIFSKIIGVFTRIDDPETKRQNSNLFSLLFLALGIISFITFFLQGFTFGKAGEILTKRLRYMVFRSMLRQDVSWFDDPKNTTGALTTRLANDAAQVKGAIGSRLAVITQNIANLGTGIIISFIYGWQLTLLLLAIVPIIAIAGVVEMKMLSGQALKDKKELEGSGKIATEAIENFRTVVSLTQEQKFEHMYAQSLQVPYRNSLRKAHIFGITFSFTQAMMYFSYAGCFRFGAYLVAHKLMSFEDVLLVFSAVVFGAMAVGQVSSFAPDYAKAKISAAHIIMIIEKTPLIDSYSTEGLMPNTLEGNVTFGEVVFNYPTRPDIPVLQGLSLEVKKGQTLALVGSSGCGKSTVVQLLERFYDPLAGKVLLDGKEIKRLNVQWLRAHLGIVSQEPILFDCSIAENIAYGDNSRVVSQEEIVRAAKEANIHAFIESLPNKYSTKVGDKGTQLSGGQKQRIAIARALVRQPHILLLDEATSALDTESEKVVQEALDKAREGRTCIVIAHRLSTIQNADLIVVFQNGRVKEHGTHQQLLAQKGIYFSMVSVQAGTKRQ
Description for p-glycoprotein: When in vitro testing for multidrug resistance modulation with cancer chemotherapeutic drugs is conducted compounds are evaluated for their ability to show multidrug resistance modulation when coadministered with an oncolytic.
The cells can be maintained in SMEM medium supplemented with 10% FBS and 2 mM L-glutamine in a humidified incubator with 95% air and 5% C02. Cell number can be determined using a Coulter Counter model ZM. Cells can be subcultured every 3-4 days.
Cell viability can be determined using a modified MTT dye reduction method (Denziot, F., Lang, R., "Rapid colorimetric assay for cell growth and survival modifications to the tetrazolium procedure giving improved sensitivity and reliability", J. Immunological Methods, 89, 271-277, (1986)). A brief description of this method is as follows: cells are harvested during the logarithmic growth phase, and seeded in 96-well serocluster plates at 7.5×10^3 cells/well and cultured for 72 hours in the presence of serially diluted oncolytics (VLB, DOX, VP-16 and Taxol®)±modulators. A single well assay is conducted using a fixed concentration of VLB (4 ng/ml) and modulator (5μM). The cytotoxicity of the modulator alone, at the same concentration is also determined. Modulators are prepared as 2 mM stocks in DMSO and added to the wells to give final concentrations ranging from 5 pM to 0.5 WM. After 72 hours, 20 µl of freshly prepared MTT (5 mg/ml in Dulbecco's phosphate buffered saline pH 7.5) is added to each well and placed for 4 hours in a 37° C. incubator. Cells are pelleted at 1800 R.P.M. for 10 minutes in a Sorvall RT6000B centrifuge. After centrifugation, 70 μl of medium is carefully removed from each well, and 100 µl of 2- propanol/0.04 N HC1 is added to dissolve the blue formazan stained cells. Cells are resuspended 5-10 times with a multipipettor or until no particulate matter was visible. Plates are immediately read on a Yitertek MCC/340 microplate reader (Flow Laboratories (McLean, VA) with a wavelength of 570 nm and a reference wavelength of 630 nm). Controls are measured in quadruplicate and modulators in duplicate.
IC50 's are calculated from semilog dose response curves in the presence and absence of modulators for both the parent and resistant cell lines. The fold shift is calculated as the IC50 for cells treated with oncolytic alone divided by the IC50 for cells treated with oncolytic+modulator.

As for `OC(CCc1cccc2ncccc12)CN1CCN([C@@H]2c3ccccc3[C@@H]3[C@H](c4ccccc42)C3(F)F)CC1` (stereo partly drawn) [Example 1e, anti-5-{1-(4-(10,11-difluorocyclopropyldibenzosuber-5-yl)piperazin-1-yl)-2(R,S)-hydroxybut-4-yl}quinoline·3HC1], at p-glycoprotein, the “MDR Reversal Activity” value was “potent”, a half-maximal response (EC50) required 1000 nM and the “Rev100 (lowest concentration of modifier which can achieve 100% reversal activity)” value was above 1.0 µM.
The like results for `O[C@@H](CSc1cccc2ncccc12)CN1CCN([C@@H]2c3ccccc3[C@@H]3[C@H](c4ccccc42)C3(F)F)CC1` [Example 2b, anti-5-{l-(4-(10,11-difluorocyclopropyldi-benzosuber-5-yl)piperazin-1-yl)-2(R)-hydroxyprop-3-ylthio}quinoline·3HC1] were, in that order, “potent”, 250 nM and 0.50 µM.
Consider `O=C(C(c1ccccc1)c1ccccc1)N1CCN(CC(O)COc2cccc3ncccc23)CC1` (stereo not drawn) [MS-209], for which the “dose required to be effective as a multidrug resistance modulator” value in the data set on multidrug resistance is recorded as “higher doses”. Moreover, the oral bioavailability entry in data set [1] is given as “better”.
On to `COc1ccc(CCN(C)CCCC(C#N)(c2ccc(OC)c(OC)c2)C(C)C)cc1OC` (stereo not drawn) [verapamil], for which the “effect on drug-resistant malaria” value in the data set on drug-resistant malaria is recorded as “effective”.
